# Test results from patent US8940477B2 (priority 2007, dated 2015).
# Entries after “also recorded” stand apart in the source; their conditions may differ.
# Molecular target: BoNT/A (Clostridium botulinum, UniProt P0DPI1)
# Format: cell-based
# Sequence of BoNT/A (P0DPI1 2-448 limits assumed): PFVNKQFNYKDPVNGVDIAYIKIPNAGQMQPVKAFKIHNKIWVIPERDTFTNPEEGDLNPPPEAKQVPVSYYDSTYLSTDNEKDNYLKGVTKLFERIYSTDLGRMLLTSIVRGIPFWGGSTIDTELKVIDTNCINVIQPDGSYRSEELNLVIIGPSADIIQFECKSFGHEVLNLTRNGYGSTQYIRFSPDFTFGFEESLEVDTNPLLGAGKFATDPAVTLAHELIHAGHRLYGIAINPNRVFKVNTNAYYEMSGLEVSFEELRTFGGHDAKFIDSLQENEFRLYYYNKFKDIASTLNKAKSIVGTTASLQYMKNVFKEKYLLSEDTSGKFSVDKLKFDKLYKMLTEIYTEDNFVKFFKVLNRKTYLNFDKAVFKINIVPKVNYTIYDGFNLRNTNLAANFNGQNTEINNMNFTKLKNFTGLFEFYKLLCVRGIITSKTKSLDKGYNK
# Sequence of BoNT/A (P0DPI1 449-1296 limits assumed): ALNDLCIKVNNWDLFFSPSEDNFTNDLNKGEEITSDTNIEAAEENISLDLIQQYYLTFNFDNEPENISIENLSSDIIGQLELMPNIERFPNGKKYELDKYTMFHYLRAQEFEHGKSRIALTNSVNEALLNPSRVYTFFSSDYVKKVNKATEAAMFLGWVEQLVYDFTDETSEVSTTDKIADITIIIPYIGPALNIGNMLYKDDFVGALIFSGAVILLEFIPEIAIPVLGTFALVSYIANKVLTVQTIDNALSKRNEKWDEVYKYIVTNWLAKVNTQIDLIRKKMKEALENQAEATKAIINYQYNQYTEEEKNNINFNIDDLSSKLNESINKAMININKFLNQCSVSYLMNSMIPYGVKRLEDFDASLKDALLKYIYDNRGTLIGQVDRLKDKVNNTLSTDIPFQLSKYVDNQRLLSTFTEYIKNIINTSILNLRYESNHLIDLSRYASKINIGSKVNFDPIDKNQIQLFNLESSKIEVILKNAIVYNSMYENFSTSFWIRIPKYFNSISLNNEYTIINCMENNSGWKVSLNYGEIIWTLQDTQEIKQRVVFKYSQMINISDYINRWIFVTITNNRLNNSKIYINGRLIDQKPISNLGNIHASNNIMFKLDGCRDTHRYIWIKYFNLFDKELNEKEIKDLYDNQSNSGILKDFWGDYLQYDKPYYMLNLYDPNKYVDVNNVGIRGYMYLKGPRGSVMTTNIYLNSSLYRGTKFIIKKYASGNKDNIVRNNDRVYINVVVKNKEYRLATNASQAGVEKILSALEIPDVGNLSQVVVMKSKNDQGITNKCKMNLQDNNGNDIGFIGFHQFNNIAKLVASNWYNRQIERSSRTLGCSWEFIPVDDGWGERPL
smiles,measurement,value
CC(=O)O[C@@H]1C[C@H](O)[C@@]23CO[C@@H](O)[C@]1(C)[C@@H]2C[C@@H](O)[C@]1(C)[C@@H]3C(=O)[C@H](OC(C)=O)[C@@]2(C)[C@H](c3ccoc3)C[C@H]3O[C@]321 [Toosendanin],SNAP25 cleavage in presence of Toosendanin,only full-length SNAP25 was detected; also recorded: protects against BoNT/A induced SNAP25 cleavage
